A short description of this data set: xn = mol fraction of the nth substance listed. As to conditions: 298.15 K, 101 kPa, Liquid.

Molecules are shown by their SMILES. Numbers after ± are expanded uncertainties.

By mass density is commonly meant mass per unit of volume. One may read the viscosity as the resistance of a fluid to flow. Consider `CCCCOC(C)=O` [butyl ethanoate] + C1COCCO1, for which the mass density is, setting by setting: (x2 = 0) 874.4 ± 0.7 kg/m3; (x2 = 0.1278) 887.5 ± 0.7 kg/m3; (x2 = 0.2479) 901 ± 0.7 kg/m3; (x2 = 0.361) 914.9 ± 0.7 kg/m3; (x2 = 0.4678) 929.2 ± 0.7 kg/m3; (x2 = 0.5687) 944.1 ± 0.8 kg/m3. For the same compound, the mass density is, setting by setting: (x2 = 0.6641) 959.4 ± 0.8 kg/m3; (x2 = 0.7547) 975.3 ± 0.8 kg/m3; (x2 = 0.8406) 991.8 ± 0.8 kg/m3; (x2 = 0.9223) 1008.9 ± 0.8 kg/m3. The viscosity reads like this: (x2 = 0) 0.668 ± 0.012 mPa·s; (x2 = 0.1278) 0.682 ± 0.012 mPa·s; (x2 = 0.2479) 0.692 ± 0.012 mPa·s; (x2 = 0.361) 0.708 ± 0.013 mPa·s; (x2 = 0.4678) 0.739 ± 0.013 mPa·s; (x2 = 0.5687) 0.779 ± 0.014 mPa·s. Moreover, the viscosity runs as follows: (x2 = 0.6641) 0.822 ± 0.014 mPa·s; (x2 = 0.7547) 0.866 ± 0.015 mPa·s; (x2 = 0.8406) 0.939 ± 0.016 mPa·s; (x2 = 0.9223) 1.035 ± 0.017 mPa·s.

As for `C1COCO1` [1,3-dioxolane] + CCCC(=O)O, where the note is “x1 = 1”, the mass density is listed as 1057.1 ± 0.9 kg/m3 and the viscosity came to 0.531 ± 0.01 mPa·s.

`C1COCCO1` [1,4-dioxane] + CCC(C)=O: under “x1 = 1”, the mass density was found to be 1026.5 ± 0.8 kg/m3 and the viscosity was 1.196 ± 0.02 mPa·s.

For the compound `CCC(C)=O` [butanone] + C1COCCO1, the mass density was found to be 798.1 ± 0.6 kg/m3 (x2 = 0); 817 ± 0.6 kg/m3 (x2 = 0.0833); 836.5 ± 0.7 kg/m3 (x2 = 0.1698); 856.8 ± 0.7 kg/m3 (x2 = 0.2597); 877.9 ± 0.7 kg/m3 (x2 = 0.353); 900.1 ± 0.7 kg/m3 (x2 = 0.4501). For the same compound, the mass density (x2 = 0.5511) is 923.3 ± 0.7 kg/m3, the mass density (x2 = 0.6563) is given as 947.2 ± 0.8 kg/m3, the mass density (x2 = 0.766) came to 972.2 ± 0.8 kg/m3 and the mass density (x2 = 0.8805) came to 998.5 ± 0.8 kg/m3. In addition, the viscosity (x2 = 0) is on record as 0.373 ± 0.007 mPa·s; the viscosity (x2 = 0.0833) stood at 0.391 ± 0.008 mPa·s; the viscosity (x2 = 0.1698) came out at 0.411 ± 0.008 mPa·s; the viscosity (x2 = 0.2597) stood at 0.436 ± 0.008 mPa·s; the viscosity (x2 = 0.353) stood at 0.464 ± 0.009 mPa·s; the viscosity (x2 = 0.4501) is listed as 0.512 ± 0.01 mPa·s. Besides, the viscosity by setting is: (x2 = 0.5511) 0.576 ± 0.011 mPa·s; (x2 = 0.6563) 0.65 ± 0.012 mPa·s; (x2 = 0.766) 0.751 ± 0.013 mPa·s; (x2 = 0.8805) 0.901 ± 0.015 mPa·s.

As for `CCC(C)=O` [butanone] + C1COCO1, under “x2 = 0”, the mass density is on record as 798.1 ± 0.6 kg/m3 and the viscosity is 0.373 ± 0.007 mPa·s.
